Several values for one entry are separate records, joined by “and”; a condition that tells them apart may be missing. Identical values can stand only once. Like-named read-outs stand apart in the source and are kept apart here.

In assay [1] the test system is P. falciparum strain 3D7. In words: Proliferation of intraerythrocytic P. falciparum 3D7 (SYBR Green, 72 h). It counts as cell-based, Plasmodium falciparum. The conditions noted are these: chloroquine sensitive strain 3D7, 72 h, read-out: Pf 3D7 EC50. As for the experimental part:
(§1) Two P. falciparum strains were used in this study and were provided by the MR4 Unit of the American Type Culture Collection (ATCC, Manassas, VA). Those two strains were the chloroquine sensitive strain 3D7 and the K1 strain that is resistant to chloroquine, pyrimethamine, and sulfadoxine.
(§2) Asynchronous parasites were maintained in culture based on the method of Trager. Parasites were grown in presence of fresh group O-positive erythrocytes (Key Biologics, LLC) in Petri dishes at a hematocrit of 4–6% in RPMI based media (RPMI 1640 supplemented with 0.5% AlbuMAX II, 25 mM HEPES, 25 mM NaHCO3 (pH 7.3), 100 μg/mL hypoxanthine, and 5 μg/mL gentamycin). Cultures were incubated at 37°C in a gas mixture of 90% N2, 5% O2, 5% CO2. For EC50 determinations, 20 μL of RPMI 1640 with 5 μg/mL gentamycin were dispensed per well in an assay plate (Corning 384-well microtiter plate, clear bottom, tissue culture treated, catalog no. 8807BC). 40 nL of compound, previously serially diluted in a separate 384-well white polypropylene plate (Corning, catalog no. 8748BC), was dispensed to the assay plate by hydrodynamic pin transfer (FP1S50H, V&P Scientific Pin Head) and then 20 μL of a synchronized culture suspension (1% rings, 4% hematocrit) was added to each well, thus making a final hematocrit and parasitemia of 2% and 1%, respectively. Assay plates were incubated for 72 h, and the parasitemia was determined by a method previously described: Briefly, 10 μL of the assay solution in PBS (10X SYBR Green I, 0.5% v/v triton X-100, 0.5 mg/mL saponin) was added to each well. Assay plates were shaken for 1 min, incubated in the dark for 90 min, and read with an Envision (Perkin Elmer) spectrophotometer at Ex/Em of 485 nm/535 nm. EC50s were calculated with a custom program (RISE, Robust Investigation of Screening Experiments) using a four-parameter logistic equation.

The subject of assay [2] is P. falciparum strain K1. In words: Proliferation of intraerythrocytic P. falciparum K1 (SYBR Green, 72 h). It counts as cell-based, Plasmodium falciparum. The conditions noted are these: multi-drug resistant strain K1, 72 h, read-out: Pf K1 EC50. As for the experimental part:
as §1, §2

Assay [3] deals with P. falciparum strain 3D7 intraerythrocytic forms. Also on record: method as in PubChem web site, http://pubchem.ncbi.nlm.nih.gov/. The conditions noted are these: reported values; ref PubChem web site, http://pubchem.ncbi.nlm.nih.gov/; read-out: EC50 3D7 In vitro; cited from earlier work.
For assay [4], the target named is PfHT (Plasmodium falciparum, UniProt Q7KWJ5). In words: Uptake of [3H] D-glucose by L. mexicana Δlmxgt1-3 null mutants expressing PfHT. The conditions noted are these: for Ki: linear regression; for Vmax: glucose uptake by PfHT; for mode of inhibition of glucose uptake through PfHT: substrate saturation curves, one-way ANOVA of Vmax and Km; for SIglucose GLUT1/PfHT (Specificity Index, IC50 for GLUT1/IC50 for PfHT): uptake of 100 μM [3H] D-glucose. Also on record: expressed in transfected cells; host or cells: Leishmania mexicana promastigotes, Δlmxgt1-3 hexose transporter null mutant. It counts as cell-based. As for the experimental part:
(§3) Glucose uptake assays employed logarithmic phase L. mexicana promastigotes of the Δlmxgt1-3 hexose transporter null mutant strain expressing either PfHT or GLUT1 from an episomal expression vector [17]. Parasites (1x10^7) were resuspended in 100 μL phosphate buffered saline, pH 7.4. Prior to uptake, parasites were pre-incubated for 5 min with inhibitor, and uptake was initiated by adding 100 μL of 200 μM [^3H] D-glucose diluted to 4.0 μCi/mL. Uptake was terminated, typically after 1 min, by centrifuging the parasites through a layer of dibutyl phthalate, as described. Control uptake assays employing [^3H] hypoxanthine, [^3H] uridine, and [^3H] L-proline were performed similarly. Analysis of kinetic data was performed using Graph Pad Prism 4.0b software (Graph Pad).

The target of assay [5] is T1, human GLUT1 (Homo sapiens, UniProt P11166).
T1 sequence (P11166 1-492): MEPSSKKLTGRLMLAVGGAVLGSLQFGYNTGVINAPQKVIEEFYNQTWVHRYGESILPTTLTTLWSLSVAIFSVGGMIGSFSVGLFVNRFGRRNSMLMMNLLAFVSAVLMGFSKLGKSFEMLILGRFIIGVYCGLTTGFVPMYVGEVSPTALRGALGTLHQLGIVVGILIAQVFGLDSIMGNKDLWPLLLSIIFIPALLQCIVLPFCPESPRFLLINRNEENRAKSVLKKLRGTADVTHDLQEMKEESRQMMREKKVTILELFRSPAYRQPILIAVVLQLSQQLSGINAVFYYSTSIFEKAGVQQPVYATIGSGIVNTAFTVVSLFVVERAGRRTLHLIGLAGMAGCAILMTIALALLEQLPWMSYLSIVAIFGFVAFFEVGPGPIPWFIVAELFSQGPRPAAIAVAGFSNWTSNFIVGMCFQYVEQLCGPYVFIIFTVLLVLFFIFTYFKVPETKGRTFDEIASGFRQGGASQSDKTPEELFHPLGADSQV
Kind of assay: Uptake of [3H] D-glucose by L. mexicana Δlmxgt1-3 null mutants expressing GLUT1. The conditions noted are these: inhibition of uptake of 100 μM [3H] D-glucose, 1 min uptake assay. It counts as cell-based. Also on record: expressed in transfected cells; host or cells: Leishmania mexicana promastigotes, Δlmxgt1-3 hexose transporter null mutant. The procedure:
as §3

[6] abbreviates: Plasmodium falciparum, 3D7, 72 h.
[7] abbreviates: Plasmodium falciparum, K1, 72 h.
The mark [8] stands for this setting: Kic (Ki for binding of inhibitor to free transporter), from plot of Km/Vmax versus [I].
Where [9] appears, read: Kiu (Ki for binding of inhibitor to substrate-bound transporter), from plot of 1/Vmax versus [I].

PfHT, sequence (Q7KWJ5 whole entry): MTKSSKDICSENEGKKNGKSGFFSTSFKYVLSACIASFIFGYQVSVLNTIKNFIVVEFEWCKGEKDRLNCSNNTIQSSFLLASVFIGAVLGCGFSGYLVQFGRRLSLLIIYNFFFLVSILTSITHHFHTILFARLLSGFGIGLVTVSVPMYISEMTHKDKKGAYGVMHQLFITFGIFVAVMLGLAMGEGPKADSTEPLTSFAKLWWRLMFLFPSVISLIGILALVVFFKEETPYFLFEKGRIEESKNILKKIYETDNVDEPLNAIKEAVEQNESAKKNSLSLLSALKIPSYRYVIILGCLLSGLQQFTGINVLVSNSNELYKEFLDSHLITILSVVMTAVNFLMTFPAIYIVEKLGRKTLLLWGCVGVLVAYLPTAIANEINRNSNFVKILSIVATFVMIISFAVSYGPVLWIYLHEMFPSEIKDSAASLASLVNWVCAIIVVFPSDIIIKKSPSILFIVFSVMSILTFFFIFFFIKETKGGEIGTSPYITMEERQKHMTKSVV

A word on the EC50: it is the midpoint of the concentration-response curve. In general, IC50 refers to the concentration needed to halve the response being measured. In general, Ki refers to a measure of affinity in units of concentration, obtained from inhibition or displacement. Low readings indicate tighter binding, high ones weaker binding. In the case of `COc1cc(Nc2ccc3cc(S(=O)(=O)N4CCCCC4C)ccc3n2)cc(OC)c1OC` (centres unmarked) [Compound 1], the concentration for a half-maximal effect (EC50) in assay [1] (setting [6]) was around 1000 nM; in assay [1], 1400 nM; in assay [2] (setting [7]), around 1000 nM; in assay [2], 970 nM; in assay [3], 1240 nM. Besides, the IC50 in assay [4] was 39 nM; in assay [5] it was 3200 nM and > 3000 nM. Further, the “selective inhibition of PfHT versus GLUT1” value in assay [4] came out at 82 fold. For the same compound, the Ki came out at 33 nM in assay [4] (setting [8]) and 23 nM in assay [4] (setting [9]). Moreover, the figures for the Vmax in assay [4] ([I] 50 nM) and in assay [4] ([I] 100 nM) were 280 ± 15 pmol per 10^7 cells per min and 131 ± 4 pmol per 10^7 cells per min, respectively. Moreover, the “mode of inhibition of glucose uptake through PfHT” value in assay [4] is “non-competitive inhibitors”. Besides, in assay [4], the “SIglucose GLUT1/PfHT (Specificity Index, IC50 for GLUT1/IC50 for PfHT)” value was 82.
For `CC1CCCCN1S(=O)(=O)c1ccc2nc(Nc3ccccc3)ccc2c1` (centres unmarked) [Compound 10], the EC50 in assay [1] (setting [6]) was above 10000 nM; in assay [1] it was 15000 nM; in assay [2] (setting [7]), above 10000 nM; in assay [2], 12000 nM. Further, the IC50 in assay [4] (read-out: IC50 PfHT, inhibition of uptake of 100 μM [3H] D-glucose, 1 min uptake assay) is above 10000 nM; in assay [5], above 10000 nM.
As for `CC1CCCCN1S(=O)(=O)c1ccc2nc(Nc3ccc(C#N)cc3)ccc2c1` (centres unmarked) [Compound 12], the EC50 was above 10000 nM in assay [1] (setting [6]), above 16000 nM in assay [1], above 10000 nM in assay [2] (setting [7]) and above 16000 nM in assay [2]. Also, the IC50 was 2700 nM in assay [4] and 2500 nM in assay [5]. Further, the “SIglucose GLUT1/PfHT (Specificity Index, IC50 for GLUT1/IC50 for PfHT)” value in assay [4] turned out to be 0.92.
Consider `CC1CCCCN1S(=O)(=O)c1ccc2nc(Nc3cccc(C#N)c3)ccc2c1` (centres unmarked) [Compound 13], for which the concentration for a half-maximal effect (EC50) was above 10000 nM in assay [1] (setting [6]), 11000 nM in assay [1], above 10000 nM in assay [2] (setting [7]) and 7300 nM in assay [2]. In addition, the figures for the IC50 in assay [4] and in assay [5] were 320 nM and 30000 nM, respectively. Further, the “lower affinity for PfHT than Compound 1” value in assay [4] was found to be 8 fold. Moreover, the “selective inhibition of PfHT versus GLUT1” value in assay [4] is reported as 94 fold. Also, the Ki was found to be 330 nM in assay [4] (setting [8]) and 260 nM in assay [4] (setting [9]). Moreover, the figures for the Vmax in assay [4] ([I] 600 nM) and in assay [4] ([I] 1000 nM) were 245 ± 67 pmol per 10^7 cells per min and 93 ± 53 pmol per 10^7 cells per min, respectively. For the same compound, the “mode of inhibition of glucose uptake through PfHT” value in assay [4] is “non-competitive inhibitors”. The “SIglucose GLUT1/PfHT (Specificity Index, IC50 for GLUT1/IC50 for PfHT)” value in assay [4] was found to be 94.

Source of the values: article PMC4404333, “Identification of Selective Inhibitors of the Plasmodium falciparum Hexose Transporter PfHT by Screening Focused Libraries of Anti-Malarial Compounds” (PLoS ONE, 2015).
